# From the supplement of paper PMC11451515
# Tested on: P12-Ichikawa
# Assay: cell viability relative to DMSO control; higher = less cytotoxic
# Settings: 48 h
# In short: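 NOMO1 or SEM (500 cells/well) or P12-Ichikawa (1000 cells/well) leukemia cells were adapted for at least four passages in each medium. They were seeded in 1536-well plates (5 μl) and pin-dosed with library compounds in DMSO over an 11-point threefold series, 47 μM to 0.79 nM. CellTiter-Glo One luminescence was read after 48 h at 37°C. Viability is the per-plate percentage relative to DMSO wells, with cell-free wells as background.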
# [1] = HPLM + 10% dialyzed FBS, 0.000781 µM
# [2] = HPLM + 10% dialyzed FBS, 0.00234 µM
# [3] = HPLM + 10% dialyzed FBS, 0.00702 µM
# [4] = HPLM + 10% dialyzed FBS, 0.0211 µM
# [5] = HPLM + 10% dialyzed FBS, 0.0632 µM
# [6] = HPLM + 10% dialyzed FBS, 0.19 µM
# [7] = HPLM + 10% dialyzed FBS, 0.569 µM
# [8] = HPLM + 10% dialyzed FBS, 1.71 µM
# [9] = HPLM + 10% dialyzed FBS, 5.12 µM
# [10] = HPLM + 10% dialyzed FBS, 15.4 µM
# [11] = HPLM + 10% dialyzed FBS, 46.1 µM
# [12] = RPMI 5 mM glucose + 10% FBS, 0.000781 µM
# [13] = RPMI 5 mM glucose + 10% FBS, 0.00234 µM
# [14] = RPMI 5 mM glucose + 10% FBS, 0.00702 µM
# [15] = RPMI 5 mM glucose + 10% FBS, 0.0211 µM
# [16] = RPMI 5 mM glucose + 10% FBS, 0.0632 µM
# [17] = RPMI 5 mM glucose + 10% FBS, 0.19 µM
# [18] = RPMI 5 mM glucose + 10% FBS, 0.569 µM
# [19] = RPMI 5 mM glucose + 10% FBS, 1.71 µM
# [20] = RPMI 5 mM glucose + 10% FBS, 5.12 µM
# [21] = RPMI 5 mM glucose + 10% FBS, 15.4 µM
# [22] = RPMI 5 mM glucose + 10% FBS, 46.1 µM
# [23] = RPMI 5 mM glucose + 10% dialyzed FBS, 0.000781 µM
# [24] = RPMI 5 mM glucose + 10% dialyzed FBS, 0.00234 µM
# [25] = RPMI 5 mM glucose + 10% dialyzed FBS, 0.00702 µM
# [26] = RPMI 5 mM glucose + 10% dialyzed FBS, 0.0211 µM
# [27] = RPMI 5 mM glucose + 10% dialyzed FBS, 0.0632 µM
# [28] = RPMI 5 mM glucose + 10% dialyzed FBS, 0.19 µM
# [29] = RPMI 5 mM glucose + 10% dialyzed FBS, 0.569 µM
# [30] = RPMI 5 mM glucose + 10% dialyzed FBS, 1.71 µM
# [31] = RPMI 5 mM glucose + 10% dialyzed FBS, 5.12 µM
# [32] = RPMI 5 mM glucose + 10% dialyzed FBS, 15.4 µM
# [33] = RPMI 5 mM glucose + 10% dialyzed FBS, 46.1 µM
SMILES,cell viability [1] [%],cell viability [2] [%],cell viability [3] [%],cell viability [4] [%],cell viability [5] [%],cell viability [6] [%],cell viability [7] [%],cell viability [8] [%],cell viability [9] [%],cell viability [10] [%],cell viability [11] [%],cell viability [12] [%],cell viability [13] [%],cell viability [14] [%],cell viability [15] [%],cell viability [16] [%],cell viability [17] [%],cell viability [18] [%],cell viability [19] [%],cell viability [20] [%],cell viability [21] [%],cell viability [22] [%],cell viability [23] [%],cell viability [24] [%],cell viability [25] [%],cell viability [26] [%],cell viability [27] [%],cell viability [28] [%],cell viability [29] [%],cell viability [30] [%],cell viability [31] [%],cell viability [32] [%],cell viability [33] [%]
O=P(O)(O)C(O)(Cc1cccnc1)P(=O)(O)[O][Na] (centres undefined),88.6,81.8,99.2,11.3,95.5,94.2,105,100,105,105,110,87.4,98.6,98.9,16.4,94.5,98.3,100,107,108,118,112,85.3,91.3,91.2,17.4,97.7,100,95.1,103,100,104,104
O=C(Oc1ccc([N+](=O)[O-])cc1)N1CCN(Cc2cccc(Oc3ccccc3)c2)CC1,96.8,101,106,116,113,112,114,111,113,102,104,105,98,112,114,111,112,122,118,102,102,107,101,92.2,100,101,105,101,105,114,103,109,108
NC/1=N/C(=O)N(/C=C1)[C@H]2CC[C@@H](CO)O2,85,95.4,93.5,101,95.9,102,96.1,106,95.5,104,37.6,88.3,87.6,88.6,94,102,91.1,99.6,92.2,94.3,90.9,41.8,59.6,87.9,88.1,90.3,85.1,90.4,96.6,93.9,98.2,90.9,30
CNC(=O)c1cc(Oc2ccc(NC(=O)Nc3cc(C(C)(C)C)nn3-c3ccc4ncccc4c3)c(F)c2)ccn1,111,120,124,128,139,134,132,131,134,139,125,,,,,,,,,,,,,,,,,,,,,,
CO[C@@H]1[C@H](N(C)C(=O)c2ccccc2)C[C@H]2O[C@]1(C)n1c3ccccc3c3c4c(c5c6ccccc6n2c5c31)C(=O)NC4,113,111,113,112,121,122,122,109,17.9,15,18.9,112,110,111,117,119,122,124,106,24.4,28.8,24.4,111,125,117,116,123,140,126,111,35.7,33.1,30.2
COc1ccc(-c2c(-c3ccc(O)cc3O)n[nH]c2C)cc1,108,101,117,112,114,106,112,107,105,101,78.1,99.8,105,105,100,110,106,105,112,102,95.6,68.6,101,106,110,111,107,113,113,113,105,101,89.5
CCC(CC)[C@H](NC(C)=O)[C@@H]1[C@H](O)[C@@H](C(=O)O)C[C@H]1NC(=N)N,84.6,86.3,86.2,95.4,102,84.1,95.6,89,100,91.4,101,85.2,79.7,81.5,86,84.2,75.9,84.8,85.1,87.4,78.1,86.9,75.7,82.1,81.7,86.4,83,80.5,77.4,81.8,76.5,82.6,86.8
